# Laboratory results as given in PubChem BioAssay (NCI).
# Where “and” joins values, the source holds several entries; their conditions need not be identical. Equal entries are not always repeated.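 Briefly, cells in 96-well plates were exposed to five compound concentrations for 48 h, and endpoints were estimated by linear interpolation. GI50 marks 50% less growth. TGI denotes the concentration required for complete inhibition of growth.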
# Legend:
# Assay in all cases: NCI-60 cell line screen, 48 h
# CCRF-CEM leukemia = tested on: CCRF-CEM leukemia
# EKVX NSCLC = tested on: EKVX NSCLC
# HOP-62 NSCLC = tested on: HOP-62 NSCLC
# HOP-92 NSCLC = tested on: HOP-92 NSCLC
# KM12 colon = tested on: KM12 colon
# LOX IMVI melanoma = tested on: LOX IMVI melanoma
# NCI-H23 lung = tested on: NCI-H23 lung
# PC-3 prostate = tested on: PC-3 prostate
# RPMI-8226 leukemia = tested on: RPMI-8226 leukemia
# UACC-257 melanoma = tested on: UACC-257 melanoma
Compound,GI50 (CCRF-CEM leukemia),TGI (CCRF-CEM leukemia),GI50 (EKVX NSCLC),TGI (EKVX NSCLC),GI50 (HOP-62 NSCLC),TGI (HOP-62 NSCLC),GI50 (HOP-92 NSCLC),TGI (HOP-92 NSCLC),GI50 (KM12 colon),TGI (KM12 colon),GI50 (LOX IMVI melanoma),TGI (LOX IMVI melanoma),GI50 (NCI-H23 lung),TGI (NCI-H23 lung),GI50 (PC-3 prostate),TGI (PC-3 prostate),GI50 (RPMI-8226 leukemia),TGI (RPMI-8226 leukemia),GI50 (UACC-257 melanoma),TGI (UACC-257 melanoma)
Nc1nc(-c2ccc(F)cc2)c(-c2ccc3ncccc3n2)s1,> 22.1 µM,> 25 µM,11.2 µM,> 25 µM,24.9 µM,> 25 µM,0.268 µM,24.6 µM,> 25 µM,> 25 µM,18 µM,> 25 µM,15.6 µM,> 25 µM,13.5 µM,> 25 µM,> 19.8 µM,> 25 µM,> 25 µM,> 25 µM
Cc1occc1C(=S)Nc1ccc(Cl)c(C(=O)OC(C)C2CC2)c1 (configuration not stated),,> 100 µM,,54.9 µM,,57.7 µM,,51.5 µM,,39.9 µM,,49.5 µM,,40.1 µM,,41.3 µM,,60.1 µM,,> 100 µM
CCNC(=O)c1cc2c(-c3cc(C(C)(C)O)ccc3Oc3c(C)cc(F)cc3C)cn(C)c(=O)c2[nH]1,2.21 µM,23.9 µM,2.26 µM,16.4 µM,0.914 µM,13.7 µM,0.257 µM,10.9 µM,1.87 µM,15.8 µM,0.922 µM,2.74 µM,1.89 µM,10.7 µM,2.42 µM,13.9 µM,0.605 µM,8.98 µM,2.27 µM,18.5 µM
O=[N+]([O-])c1c(Br)sc(Br)c1[N+](=O)[O-],1.11 µM,4.15 µM,9.3 µM,23.8 µM,3.25 µM,11.3 µM,1.87 µM,3.57 µM,10.1 µM,22 µM,1.58 µM,3.07 µM,11.3 µM,28.9 µM,1.94 µM,4.03 µM,1.91 µM,5.54 µM,1.52 µM,3.04 µM
O=C(O)c1cccc(N=Nc2c(S(=O)(=O)O)ccc3c2C(=O)c2ccccc2C3=O)c1O,,> 100 µM,,> 100 µM,,> 100 µM,,> 100 µM,,> 100 µM,,> 100 µM,,> 100 µM,,> 100 µM,,> 100 µM,,> 100 µM
CC(=Nc1ccccc1)C1=C(O)C(Cc2ccccc2)NC1=O (configuration not stated),0.0431 µM,> 100 µM,0.0798 µM,> 100 µM,0.0435 µM,,0.0515 µM,> 100 µM,0.0278 µM,0.266 µM,0.0574 µM,> 34 µM,0.0669 µM,> 100 µM,0.036 µM,> 100 µM,0.0515 µM,> 100 µM,> 100 µM,> 100 µM
COc1cc(O)c(C(=O)/C=C/c2ccc(O)cc2)c(O)c1[C@@H]1C[C@H](CCc2ccc(O)cc2)O[C@H](c2ccc(O)cc2)C1,3.28 µM,10.6 µM,4.35 µM,15.8 µM,3.17 µM,11.2 µM,2 µM,5.92 µM,2.51 µM,6.64 µM,2.93 µM,8.37 µM,3.14 µM,9.3 µM,3.37 µM,12.5 µM,2.18 µM,5 µM,5.47 µM,20.2 µM
NC(=O)c1ccc2nc(-c3ccc(Oc4ccc(Cl)cc4)cc3)[nH]c2c1,23.5 µM and 15.7 µM,75 µM and 64.1 µM,> 75 µM,> 75 µM,48.4 µM and 13.7 µM,75 µM and 36.1 µM,> 75 µM,> 75 µM,65 µM and 13.9 µM,75 µM and 31.3 µM,17.9 µM and 15.6 µM,75 µM and 36.7 µM,67.5 µM and 13.5 µM,75 µM and 32.7 µM,55.3 µM and 11.2 µM,75 µM and 25.5 µM,> 75 µM and 10.9 µM,> 75 µM and 37.6 µM,66.7 µM and 18.4 µM,75 µM and 33.5 µM
COc1ccc2c(c1)n([O-])c1ccccc1[n+]2=O,,> 100 µM,,> 100 µM and 55.1 µM,,> 100 µM,,> 100 µM,,> 100 µM and 46.2 µM,29.5 µM and 7.2 µM,> 100 µM and 31.6 µM,,> 100 µM and 91.4 µM,91.9 µM and 28.3 µM,> 100 µM and 73.1 µM,,97.1 µM and > 100 µM,46.5 µM and 17.9 µM,> 100 µM and 40.2 µM
COc1ccc2c(c1)C(=O)c1c-2c(Nc2ccc(Cl)cc2)nc2ccccc12,32 µM,> 100 µM,10.1 µM,95.3 µM,2.86 µM,11.3 µM,11.5 µM,39.2 µM,50 µM,> 100 µM,14.2 µM,54.9 µM,13.6 µM,50.3 µM,15.5 µM,63.3 µM,24.5 µM,> 100 µM,27.8 µM,> 100 µM
